Assay results taken from patent publication US11642337B2, “Therapeutic agent for mental retardation or autism” (TOKYO METROPOLITAN INSTITUTE OF MEDICAL SCIENCE, priority 2017, dated 2023).

Assays:
Assay type in all cases: in vivo, mouse
Tsc2^+/− mice = test: Contextual fear discrimination test in Tsc2+/- mice (memory impairment of tuberous sclerosis); conditions: 40 mg/kg orally, single administration six hours before FS, measured on the next day in the same box, vs vehicle group
Procedure: Tsc2^+/− mice were prepared by breeding/crossing according to a known method (Kobayashi, T., et al., Renal carcinogenesis, hepatic hemangiomatosis, and embryonic lethality caused by a germ-line Tsc2 mutation in mice. Cancer Res, 1999. 59(6): p. 1206-11).
A contextual fear discrimination test (Auerbach, B. D., E. K. Osterweil, and M. F. Bear, Mutations causing syndromic autism define an axis of synaptic pathophysiology. Nature, 2011. 480(7375): p. 63-8.) was carried out to measure the contextual fear memory of mice. More specifically, each mouse was placed in a cage for application of foot shock (FS), and FS was applied to the mouse. On the next day, the mouse was returned to the same cage (familiar condition), and the freeze time was measured (FIG. 1a). In order to investigate the effect of tipifarnib or lonafarnib (which may be hereinafter simply referred to as “active component”), a vehicle (carboxymethyl cellulose) and the active component were orally administered to mice, and FS was applied to each mouse 6 hours later. On the next day, the mouse was returned to the same cage to compare the freeze time. […]
Six hours before FS, lonafarnib (40 mg/kg) or tipifarnib (40 mg/kg) was orally administered to the Tsc2^+/− mice, and contextual fear memory was investigated (FIG. 1a). On the next day, the mice were returned to the box in which the FS was applied, and the freeze time was measured.

[1] = tested on: mice to which pentylenetetrazol was administered; test: Contextual fear discrimination test in pentylenetetrazol-treated mice (epilepsy-induced memory impairment); conditions: mice given pentylenetetrazol 10 times; single administration 40 mg/kg, i.p.
[2] = tested on: mice to which kainic acid was administered during the neonatal period; test: Three-chamber test in mice given kainic acid in the neonatal period (autism-like abnormality of social behavior); conditions: mice given kainic acid 1.5 mg/kg one week after birth, tested two months later; single administration 40 mg/kg, i.p.
[3] = tested on: GFAP-Cre; Tsc1^fl/fl (GFAP-Tsc1 cKO) mice; test: Three-chamber test in GFAP-Tsc1 cKO mice (abnormality of social behavior); conditions: single oral administration (40 mg/kg)
Procedure: By a three-chamber test, social interaction was investigated. This was carried out using an experiment device having three separated chambers between which a mouse can move freely. First, a cage containing a mouse (stranger 1 mouse) was placed in one chamber, and an empty cage was placed in another chamber (FIG. 2a). The subject mouse was placed in the middle chamber, and the length of time when the mouse stayed in each chamber (the chamber staying time in the figure, expressed in (s): seconds) was measured. Subsequently, the mouse (stranger 1 mouse) in the first cage was transferred to the empty cage, and another mouse (stranger 2 mouse) was placed in the cage that became empty (FIG. 2a). Thereafter, the length of time when the subject mouse stayed in the chamber of the first mouse (stranger 1 chamber) and the length of time when the subject mouse stayed in the chamber where the new mouse was staying (stranger 2 chamber) were measured and compared.
These mice were obtained by crossing of GFAP-Cre mice, which show astrocyte-specific Cre expression.
A suspension of 4 mg/ml lonafarnib or tipifarnib (using 1 w/v % CMC, 0.9 w/v % NaCl, and 5 v/v % DMSO as a vehicle) was prepared and orally administered at 40 mg/kg. A solution of 2 mg/ml pentylenetetrazol (PTZ) (using 0.9 w/v % NaCl as a vehicle) was prepared and intraperitoneally administered. […]

| SMILES | freeze time (contextual fear memory) (Tsc2^+/− mice) | contextual fear memory (freeze time), pentylenetetrazol-induced memory impairment [1] | staying time in the chamber of the stranger 2 (time spent in chamber) [2] | staying time in the chamber of the stranger 2 [3] |
| --- | --- | --- | --- | --- |
| NC(=O)N1CCC(CC(=O)N2CCC([C@H]3c4ncc(Br)cc4CCc4cc(Cl)cc(Br)c43)CC2)CC1 [lonafarnib] | increases in the freeze behavior | pentylenetetrazol-induced memory impairment could also be improved | significantly longer | significantly longer |
| Cn1cncc1[C@@](N)(c1ccc(Cl)cc1)c1ccc2c(c1)c(-c1cccc(Cl)c1)cc(=O)n2C [tipifarnib, 6-[(R)-amino(4-chlorophenyl)(1-methyl-1H-imidazol-5-yl)methyl]-4-(3-chlorophenyl)-1-methyl-2(1H)-quinolinone] | increases in the freeze behavior | – | – | – |
